Experiments:
α-SMA [1] = assay: Immunofluorescent staining of α-SMA (hepatic stellate cell activity index) in liver tissue of liver fibrosis animal model; assay type: in vivo, Sprague-Dawley rats; details: BDL rats, 60 mg/kg/day for 3 weeks vs Experimental Group 1; immunofluorescent co-staining with NOX1 (FIG. 3c) or NOX2 (FIG. 3d)
Text: (§1) 250 g to 300 g male Sprague-Dawley rats were subject to bile duct ligation (BDL) and atresia of bile duct to prepare liver fibrosis animal models. Six of the animal models were laparotomized, and the proximal and distal bile ducts were ligated and then cut in the middle to separate the bile duct. The animal models were then sutured and allowed to recover to be used for Experimental Group 1. Six animal models treated in the same manner as experimental group 1 were sutured and administered with 8-OHdG in the amount of 60 mg/kg/day for 3 weeks to be used for Experimental Group 2. The animal models of each of the control and experimental groups were sutured and raised for 3 weeks, followed by taking blood and liver tissues therefrom to be used for subsequent experimental procedures.

RAC1 = RAC1 (Homo sapiens, UniProt P63000); details: binds to RAC1-GTP through competition with GTP; leads to inhibition of activity of NOX complex; cited from earlier work
TIMP-1 = assay: qPCR mRNA level of TIMP-1 in liver tissue of liver fibrosis animal model; assay type: in vivo, Sprague-Dawley rats; details: BDL rats, 60 mg/kg/day for 3 weeks vs Experimental Group 1, FIG. 2b
Text: as §1, with “procedures. […]” for “procedures.”

hydroxyproline = assay: Hydroxyproline level in liver tissue of bile duct ligation liver fibrosis animal model; assay type: in vivo, Sprague-Dawley rats; details: BDL rats, 8-OHdG 60 mg/kg/day for 3 weeks (Experimental Group 2) vs BDL only (Experimental Group 1); absorbance at 560 nm; FIG. 1
Text: as §1, with “models. […]” for “models.”

α-SMA [2] = assay: qPCR mRNA level of α-SMA in liver tissue of liver fibrosis animal model; assay type: in vivo, Sprague-Dawley rats; details: BDL rats, 60 mg/kg/day for 3 weeks vs Experimental Group 1, FIG. 2d
Text: as §1, with “procedures. […]” for “procedures.”

NOX1 [3] = assay: Immunofluorescent staining of NOX1 in liver tissue of liver fibrosis animal model; assay type: in vivo, Sprague-Dawley rats; details: BDL rats, 60 mg/kg/day for 3 weeks vs Experimental Group 1, FIG. 3c
Text: as §1

collagen = assay: Picro Sirius Red staining of collagen in liver tissue of liver fibrosis animal model; assay type: in vivo, Sprague-Dawley rats; details: BDL rats, 60 mg/kg/day for 3 weeks vs Experimental Group 1; Picro Sirius Red stain, ImageJ; FIG. 3a
Text: as §1

Collagen Iα1 = assay: qPCR mRNA level of collagen in liver tissue of liver fibrosis animal model; assay type: in vivo, Sprague-Dawley rats; details: BDL rats, 60 mg/kg/day for 3 weeks vs Experimental Group 1, FIG. 2c
Text: as §1, with “procedures. […]” for “procedures.”

NOX2 [4] = assay: Immunofluorescent staining of NOX2 in liver tissue of liver fibrosis animal model; assay type: in vivo, Sprague-Dawley rats; details: BDL rats, 60 mg/kg/day for 3 weeks vs Experimental Group 1, FIG. 3d
Text: as §1

TGF-β = assay: qPCR mRNA level of TGF-β in liver tissue of liver fibrosis animal model; assay type: in vivo, Sprague-Dawley rats; details: BDL rats, 60 mg/kg/day for 3 weeks vs Experimental Group 1, GAPDH internal control, FIG. 2a
Text: as §1, with “procedures. […]” for “procedures.”

NOX2 [5] = assay: qPCR mRNA level of NOX2 in liver tissue of liver fibrosis animal model; assay type: in vivo, Sprague-Dawley rats; details: BDL rats, 60 mg/kg/day for 3 weeks vs Experimental Group 1, FIG. 2f
Text: as §1, with “procedures. […]” for “procedures.”

NOX1 [6] = assay: qPCR mRNA level of NOX1 in liver tissue of liver fibrosis animal model; assay type: in vivo, Sprague-Dawley rats; details: BDL rats, 60 mg/kg/day for 3 weeks vs Experimental Group 1, FIG. 2e
Text: as §1, with “procedures. […]” for “procedures.”

α-SMA [7] = assay: Western blot of α-SMA protein in liver tissue of liver fibrosis animal model; assay type: in vivo, Sprague-Dawley rats; details: BDL rats, 60 mg/kg/day for 3 weeks vs Experimental Group 1, GAPDH internal control, FIG. 3b
Text: as §1, with “procedures. […] GAPDH protein was used as an internal control.” for “procedures.”

SMILES: Nc1nc2c(nc(O)n2[C@H]2C[C@H](O)[C@@H](CO)O2)c(=O)[nH]1 [8-OHdG, 8-hydroxydeoxyguanosine]
- protein level of α-SMA used as a hepatic stellate cell activity index (α-SMA [1]): reduced
- RAC1 activation (RAC1): inhibits
- mRNA level of TIMP-1 in the liver tissue (TIMP-1): reduced
- level of hydroxyproline in the liver tissue (hydroxyproline): reduced
- mRNA level of α-SMA in the liver tissue (α-SMA [2]): reduced
- protein level of NOX1 in the liver tissue (NOX1 [3]): reduced
- protein level of collagen in the liver tissue (collagen): reduced
- mRNA level of collagen in the liver tissue (Collagen Iα1): reduced
- protein level of NOX2 in the liver tissue (NOX2 [4]): reduced
- mRNA level of TGF-β in the liver tissue (TGF-β): reduced
- mRNA level of NOX2 in the liver tissue (NOX2 [5]): reduced
- mRNA level of NOX1 in the liver tissue (NOX1 [6]): reduced
- protein level of α-SMA in the liver tissue (α-SMA [7]): reduced

Source: patent US20220313715A1, “PHARMACEUTICAL COMPOSITION, FOR PREVENTING OR TREATING HEPATIC FIBROSIS, COMPRISING 8-OHDG” (GIL MEDICAL CENTER, priority 2016, published 2022)
